Residues, ends and D or L forms follow the SMILES beside them. *: point of attachment. Boc = CC(C)(C)OC(=O)*
Tests used:
Format in all cases: functional
[1] = Antimigratory activity against mouse MTV/TM-011 cells assessed as wound closure measured after 24 hrs by optical microscopic analysis relative to control; design: concentration or dose not given beside the values
Bacillus subtilis = assay: Antibacterial activity against Bacillus subtilis measured after 12 hrs
Staphylococcus aureus = assay: Antibacterial activity against methicillin-resistant Staphylococcus aureus measured after 12 hrs
Acinetobacter baumannii = assay: Antibacterial activity against Acinetobacter baumannii measured after 12 hrs
Escherichia coli = assay: Antibacterial activity against Escherichia coli measured after 12 hrs
Saccharomyces cerevisiae = assay: Antifungal activity against Saccharomyces cerevisiae measured after 24 hrs
[2] = Antimigratory activity against mouse MTV/TM-011 cells assessed as wound closure at 20 uM measured after 24 hrs by optical microscopic analysis relative to control

SMILES	Activity [1] [%]	MIC (Bacillus subtilis) [µM]	MIC (Staphylococcus aureus) [µM]	MIC (Acinetobacter baumannii) [µM]	MIC (Escherichia coli) [µM]	MIC (Saccharomyces cerevisiae) [µM]	Activity [2] [%]
O=c1[nH]cc(F)c(=O)[nH]1 [FLUOROURACIL]	65	–	–	–	–	–	–
CC(C)Cc1cnc(C(C)C)c(=O)[nH]1	65	> 100	> 100	> 100	> 100	> 100	–
COC(C)(C)c1ncc(Cc2ccccc2)[nH]c1=O	65	> 100	> 100	> 100	> 100	> 100	–
CC(C)[C@H](NC(=O)OC(C)(C)C)C(=O)N[C@H](C=O)Cc1ccccc1 (Boc-Val-Phe-aldehyde)	–	> 100	> 100	> 100	> 100	> 100	65
CC(C)(O)c1ncc(Cc2ccc(O)cc2)[nH]c1=O	65	> 100	> 100	> 100	> 100	> 100	–
COC(C)(C)c1ncc(Cc2ccc(O)cc2)[nH]c1=O	65	> 100	> 100	> 100	> 100	> 100	–
CC(C)c1ncc(Cc2ccccc2)nc1O	72	> 100	> 100	> 100	> 100	> 100	–
CC(C)c1ncc(Cc2ccc(O)cc2)[nH]c1=O	65	> 100	> 100	> 100	> 100	> 100	–
CC(C)(O)c1ncc(Cc2ccccc2)[nH]c1=O	70	> 100	> 100	> 100	> 100	> 100	–

Reference: ChEMBL document CHEMBL5576090, “Structural Diversification of Pyrazinone Metabolites via Spontaneous Oxa-Michael Addition in Staphylococcus xylosus” (2024)
